Laboratory results as given in the OligoGym collection.
These antisense oligonucleotides have a phosphorothioate backbone; sugars and methylation of C are not fully specified.

target: SMAD7; conditions: ASO
Also: test concentration or dose not given here.

Row | Sequence | remaining target (mRNA or protein) (fraction of control)
1 | ACACACAGGATGGGAGCA | ≥ 1
2 | CGAACATGACCTCCGCAC | 0.52
3 | CGACAGCAGCAGCAGCAG | 0.82
4 | GATGGTACCTTGGGTTAT | 0.94
5 | GGACATCCCCGCTTGCTG | ≥ 1
6 | AAAACAGAACACAAACGA | ≥ 1
7 | AGCCTCTTGACTTCCGAG | ≥ 1
8 | GAGATCCAGGAGCAGATG | 0.78
9 | TGCTTGGATTTCTGCTTC | 0.89
10 | CCCTCCTCCTCGTCCTCG | 0.72
11 | AGGAGGCGAGGAGAAAAG | ≥ 1
12 | AAAACCTGATGTCACCAG | ≥ 1
13 | ACTCACACACACTCCTGA | 0.79
14 | ACCTTGTGTACCAACAGC | ≥ 1
15 | GCTGTCCGTCGCCCCTTC | 0.87
16 | GTATGCCACCACGCACCA | ≥ 1
17 | GGCAGCTGCTGATGAACT | 0.86
18 | AGAAGTTGGGAATCTGAA | ≥ 1
19 | GTTGTCTCCCCATCTGCC | ≥ 1
20 | AGTCTGCAGTTGGTTTGA | ≥ 1

Row | Sequence | remaining target (mRNA or protein) (fraction of control)
21 | TGCATGAAAAGCAAGCAC | 0.91
22 | CAATCTTGTGTTTATCTT | ≥ 1
23 | ATTTCCAATGAGAATGCT | ≥ 1
24 | GTAGAAGAAATGAAAGAA | ≥ 1
25 | TTGGGACTGCAAACCTCT | 0.91
26 | AATTGGTTCTGGTTCGGC | ≥ 1
27 | CTGATCTGCACGGTAAAG | ≥ 1
28 | TGGACACAGTAGAGCCTC | ≥ 1
29 | CTGCCCCTTCTTCCAAAA | 0.68
30 | GCCGATTTTGCTCCGCAC | 0.78
31 | AGGCGGCCGGGCAGCAGG | ≥ 1
32 | ATTCAGCTAGGTGATAAC | ≥ 1
33 | TGCCCAGGTACTGCCTCT | 0.72
34 | AACCTTTGTAGTTAGAAA | 0.94
35 | GCTCAGCTCACGCTCTGT | 0.62
36 | AGTTCGCAGAGTCGGCTA | 0.68
37 | GGCAAAAGCCATTCCCCT | 0.72
38 | AGCACCGAGTGCGTGAGC | 0.72
39 | GGACTTGATGAAGATGGG | ≥ 1
40 | CTCCGGCTGCCCCACCCC | 0.52

target: TERF1; conditions: ASO

Row | Sequence | remaining target (mRNA or protein) (fraction of control)
41 | CTGAGGAAACATCCTCCGCC | 0.68
42 | TAGGCATCAGGTTATAAAGA | 0.73
43 | ACAAACACAATCAGTCTTCG | ≥ 1
44 | TTAACTCTGGTAGCACAAAC | 0.59
45 | CTCGGCCACCAGGCCCGCGT | 0.82
46 | ACTGGCAAGCTGTTAGACTG | 0.49
47 | ACACAATCAGTCTTCGCTGT | 0.64
48 | AATCAGTCTTCGCTGTCTGA | ≥ 1
49 | GGCAGGTTTGTTAGCTGAGT | ≥ 1
50 | CAAACAAAATGCAGTGATCA | 0.84
51 | TCAGTCTTCGCTGTCTGAGG | 0.46
52 | TAAGAAAAGATTCTTGTGAG | 0.71
53 | CCAAATCATCAGGGCTGATT | ≥ 1
54 | TTACAAACACAATCAGTCTT | 0.77
55 | GCAGGGTTCAACAAATTTAC | 0.75
56 | AAGCTTTTACAAACACAATC | ≥ 1

Row | Sequence | remaining target (mRNA or protein) (fraction of control)
57 | AGGTTTATCTTGAGAAGTTA | ≥ 1
58 | AGTCTTCGCTGTCTGAGGAA | 0.59
59 | TTTTACAAACACAATCAGTC | 0.77
60 | GGGTTACGTTACAGGGTTGA | ≥ 1
61 | TTTAGACCAGTTTCCCTCTC | 0.68
62 | TTTGTCCCATGGGTAATACT | 0.97
63 | GACATCAAGATGATCATAGT | ≥ 1
64 | GAAACCCCGCCTCTACTAAA | 0.74
65 | TTAAACACTGGAACAAAAGT | ≥ 1
66 | GCCATTTTCCATACAAACAG | 0.81
67 | TTACTCTGTACATTTATCAT | ≥ 1
68 | AAACACAATCAGTCTTCGCT | 0.93
69 | GGCTGACTCTTTGAAACAGG | 0.6
70 | TCTGCTCCTCAGTAGGGTCG | 0.68
71 | CTCGGAGCGGCCGTCGCGGA | 0.9
72 | TTTAGGCAGGACGCAGTGGC | 0.47

target: RHOB; conditions: ASO

Row | Sequence | remaining target (mRNA or protein) (fraction of control)
73 | AGACCTCGCGCACGCCTT | 0.84
74 | GTAGTCGTAGGCTTGGAT | 0.71
75 | TCGGCCACATAGTTCTCG | 0.87
76 | GTTCCTGCTTCATGCGGG | 0.73
77 | CGTGGCCGTCTCGAAGAC | ≥ 1
78 | AGCACCTTGCAGCAGTTG | ≥ 1
79 | AACTCGTCCTTACTGAAC | 0.7
80 | GACATGCTCGTCGCTGCG | ≥ 1
81 | CTCGAAGACCTCGCGCAC | ≥ 1
82 | GGGATGTTCTCCAGCGAG | 0.67
83 | CTCTGTGCGGACATGCTC | 0.61
84 | CCACCACCAGCTTCTTGC | ≥ 1
85 | CCGTCGCCCACCACCACC | ≥ 1
86 | GTCTTGGCAGAGCACTCG | 0.8
87 | GAGTCCGGGCTGTCCACC | ≥ 1
88 | GCCGTTCTGGGAGCCGTA | ≥ 1
89 | GCACGTCTTGCCACACGC | ≥ 1
90 | CAGCAGTTGATGCAGCCG | 0.69
91 | CCAGCTCTGTGCGGACAT | 0.79
92 | CCGTCCACCTCAATGTCG | ≥ 1

Row | Sequence | remaining target (mRNA or protein) (fraction of control)
93 | ACCTCGCGCACGCCTTCC | ≥ 1
94 | GTTCTGGGAGCCGTAGCG | 0.64
95 | CTCGTCCTTACTGAACAC | 0.99
96 | ACTGAACACGATCAGCAG | ≥ 1
97 | TGCGGGCCAGCTCTGTGC | 0.69
98 | CCTTACTGAACACGATCA | ≥ 1
99 | ATGTTCTCCAGCGAGTCC | ≥ 1
100 | TTACTGAACACGATCAGC | ≥ 1
101 | CGAAGACCTCGCGCACGC | ≥ 1
102 | CATAGTTCTCGAAGACGG | ≥ 1
103 | GTTGATGCAGCCGTTCTG | 0.93
104 | AAGCACATGAGAATGACG | ≥ 1
105 | CGGACATGCTCGTCGCTG | ≥ 1
106 | GATGCAGCCGTTCTGGGA | ≥ 1
107 | CGGGCCAGCTCTGTGCGG | 0.62
108 | ACGGGTTCCTGCTTCATG | ≥ 1
109 | GTCCTTACTGAACACGAT | 0.95
110 | GCCGTCTCGAAGACCTCG | ≥ 1
111 | CGAGGTAGTCGTAGGCTT | 0.61
112 | TGTGCGGACATGCTCGTC | ≥ 1

target: MAP3K1; conditions: ASO

Row | Sequence | remaining target (mRNA or protein) (fraction of control)
113 | TTCTTGCAGAACTCAAGTAG | ≥ 1
114 | TAGTTGATCTGTATAATTGG | ≥ 1
115 | GAGAAAACTTGCGCTGTGTT | 0.37
116 | CAGAAATGTCCTCTGAACTG | 0.5
117 | GGGGTACTGTAGTAACCATT | 0.55
118 | TACTGTAGTAACCATTCTTG | 0.74
119 | ACATACTTAGGTAAGGGTTC | 0.56
120 | ATCATGATTTGTCAATCACA | 0.62
121 | CATTCTTGCAGAACTCAAGT | 0.54
122 | GGTACTGTAGTAACCATTCT | 0.53
123 | CTGTTCAGTGGCATCATGGC | 0.49
124 | ACCATTCTTGCAGAACTCAA | 0.55
125 | CCACCGACTCGGTAAGGTGG | 0.81
126 | GAATCCCTGAAGTCTATGCT | 0.52
127 | GCACTAGTTTGGGCTTTTGC | 0.28
128 | TAACCATTCTTGCAGAACTC | 0.59
129 | TTTTGCATACTGAGCTTAGG | 0.48
130 | CTGGTGAAGTGAGTGGAAAC | 0.76
131 | TCAGGCAGCTGGTCCAGCTC | 0.52
132 | ATTTCCACCTCATCTGCATA | 0.44
133 | GTCTGCCTTTTGTTTGAACC | 0.67
134 | ATTGGGTACTGTAGTAACCA | 0.54
135 | CCACTGGCCTCGTTCATAGC | 0.21
136 | CAAGGCTGGAAACATTAATT | 0.94
137 | GTAGTAACCATTCTTGCAGA | 0.42
138 | GTTTCCAGATAGTTGTTGGG | 0.85
